Data as given in patent publication US6391303B1, “Methods and compositions for inducing oral tolerance in mammals” (Emisphere Technologies, Inc., priority 1996, dated 2002).

B1: MBP: Myelin Basic Protein, encephalitogenic antigen fed orally alone as comparison in the EAE model (protein, UniProt P02686 1-304, looked up)
Myelin basic protein: MGNHAGKRELNAEKASTNSETNRGESEKKRNLGELSRTTSEDNEVFGEADANQNNGTSSQDTAVTDSKRTADPKNAWQDAHPADPGSRPHLIRLFSRDAPGREDNTFKDRPSESDELQTIQEDSAATSESLDVMASQKRPSQRHGSKYLATASTMDHARHGFLPRHRDTGILDSIGRFFGGDRGAPKRGSGKDSHHPARTAHYGSLPQKSHGRTQDENPVVHFFKNIVTPRTPPPSQGKGRGLSLSRFSWGAEGQRPGFGYGGRASDYKSAHKGFKGVDAQGTLSKIFKLGGRDSRSGSPMARR

What was measured:
[1] = test system: anti-SRBC serum IgG antibodies; test: Indirect hemagglutination assay for anti-SRBC serum IgG in mice fed SRBC with delivery agent; type: in vivo, BALB/c mice
Method: Five female BALB/c mice were fed a single dose suspension of 2.5×10^9 sheep red blood cells (SRBC)+E94 (600 mg/Kg) in Phosphate Buffered Saline (PBS), 0.1 M phosphate and 0.15 M sodium chloride, pH 7.2. Seven days after completion of oral dosing, mice were primed by footpad injection of 1×10^7 SRBC. They were bled on day 14. On day 21 the mice were tested in a Delayed Type Hypersensitivity (DTH) test through challenge by injection in the footpad not previously used in priming with 1×10^8 SRBC. Footpad thickness was measured before and 24 hours after challenge using a Vernier caliper. On day 28 they were bled again. […] (See assay description below.) Prior to assaying, the samples were heat inactivated at 56/C. for 60 minutes. Assay data for Example 1 are found in FIG. 2. […]
a) In a 15 ml tube, add 11μ of goat anti-mouse IgG (Fcy specific) (2.3 mg/ml) to 5.05 ml PBS (1/460 dilution; approximate amount needed per plate) In a second tube, add 4μ of goat anti-rabbit IgG (Fc specific) to 1.8 ml of PBS approximate amount needed (per plate) […]

DTH response to SRBC = test: Delayed Type Hypersensitivity (DTH) footpad thickness test in mice fed SRBC with delivery agent; type: in vivo, BALB/c mice; conditions: single oral dose 2.5×10^9 SRBC + delivery agent 600 mg/Kg; versus unfed control and SRBC alone
Method: (§1) Five female BALB/c mice were fed a single dose suspension of 2.5×10^9 sheep red blood cells (SRBC)+E94 (600 mg/Kg) in Phosphate Buffered Saline (PBS), 0.1 M phosphate and 0.15 M sodium chloride, pH 7.2. Seven days after completion of oral dosing, mice were primed by footpad injection of 1×10^7 SRBC. They were bled on day 14. On day 21 the mice were tested in a Delayed Type Hypersensitivity (DTH) test through challenge by injection in the footpad not previously used in priming with 1×10^8 SRBC. Footpad thickness was measured before and 24 hours after challenge using a Vernier caliper. On day 28 they were bled again. Sera were placed into Eppendorf tubes and assayed for anti-SRBC IgM (days 14 and 28) and anti-SRBC IgG (day 28) by the direct and indirect hemagglutination assays, respectively. (See assay description below.) Prior to assaying, the samples were heat inactivated at 56/C. for 60 minutes. Assay data for Example 1 are found in FIG. 2.
Five female BALB/c mice were fed a single dose suspension of 2.5×10^9 sheep red blood cells (SRBC)+[…] (600 mg/Kg) as described in Example 7. Seven days after completion of oral dosing, mice were primed by footpad injection of 1×10^7 SRBC. On day 14. footpad thickness was measured according to the Delayed Type Hypersensitivity (DTH) method outlined in Example 1. The DTH data for Example 8 are found in FIG. 8. […]

[2] = test system: anti-SRBC serum IgM antibodies; test: Direct hemagglutination assay for anti-SRBC serum IgM in mice fed SRBC with delivery agent; type: in vivo, BALB/c mice
Method: as §1, with “FIG. 2. […]” for “FIG. 2.”
a) Dilute 10μ of sera with 190μ of PBS, pH 7.2 (1/20) b) On a rigid, U-bottom microtiter plate, mark wells across the rows for dilutions of samples 40; 80; 160; . . . […]

[3] = test system: anti-influenza antibodies (anti-HA); test: Hemagglutination inhibition assay of pooled sera of primed mice fed influenza antigen with delivery agent; conditions: primed s.c. 5 μg vaccine day 0, oral 60 μg influenza antigen + 750 mg/kg delivery agent day 21
Method: Sera were collected every two weeks, pooled, and assayed for hemagglutination inhibition.
Hemagglutination Inhibition Assay for Anti-HA Antibodies:
If duplicates differ by one dilution, take the average. If they differ by more than one dilution, repeat the assay.
14) This titer provides the dilution of virus suspension which contains one HA unit per 50 μl. Divide this titer by 8 to get the dilution which will contain 4 HA units per 0.025 μl for the actual Hemagglutination Inhibition (HI) assay.
RDE* treat all test sera, reference sera and negative control sera on the day before the HI assay will be done.
Use flexible plates. Mark columns for duplicate dilution series of each test and control serum sample (normal naive serum and positive reference anti-serum). The plate should have 11 columns per row for dilutions plus column 12 for RBC alone.
To all wells, except column 1, add 25 μl of PBS.
To column 1 wells, add 50 μl of the appropriate RDE-treatment serum (test, positive, or negative control) sample.
Serially 2× dilute 25 μl of the sera across to column 11, mixing 7× per dilution.
Add 25 μl of diluted virus (containing 4 HA units per 25 μl) to all serum dilution wells, columns 1-11. Add 25 μl of PBS to column 21.
Cover plate, mix briefly on shaker, and incubate at r.t. for 30 minutes.7. […]
Read patterns immediately. […]

[4] = test system: Experimental Autoimmune Encephalomyelitis (EAE); conditions: for mean day of onset of paralysis: single oral dose 1.0 mg MBP alone or with delivery agent, day after challenge; for clinical disease (Mean Clinical Score) of EAE: single oral dose 1.0 mg MBP with delivery agent, footpad challenge 0.05 mg MBP/CFA, scale 0 to 5
Method: Two days after the (last) oral dose, all groups were challenged in the footpad with 0.05 mg of MBP emulsified with Complete Freund's Adjuvant containing Mycobacterium tuberculosis H37Ra, 4 mg/ml. Clinical signs of disease were observed starting on Day 11 after the challenge and rated on a scale of 0 (no disease) to 5 (death).

[5] = test system: anti-ovalbumin IgG antibodies; test: ELISA for serum anti-ovalbumin IgG in mice fed ovalbumin with delivery agent and challenged with ovalbumin in CFA; type: in vivo, BALB/c mice; conditions: for serum anti-ovalbumin IgG titer at week 4: single oral dose 25 mg ovalbumin with or without 600 mg/kg delivery agent, SC challenge with ovalbumin/CFA week 1, versus unfed; for serum anti-ovalbumin IgG titer at week 12: two oral doses 1 mg ovalbumin (weeks 0 and 4) with or without 600 mg/kg delivery agent, IM challenge with ovalbumin/CFA week 9
Method: A stock solution was prepared by dissolving Ovalbumin, 10 mg/ml, in 10 mM phosphate buffer (pH 7.4). This solution was diluted with buffer to provide 1.0 mg in a volume of 0.2 ml. Ten BALB/c female mice were administered two oral doses of 1 mg ovalbumin per mouse with 600 mg/kg of E94 delivery agent at weeks 0 and 4.
Systemic challenge was achieved by intramuscular (IM) injection of 2 mg/ml ovalbumin with 50% Complete Freund's Adjuvant (CFA) at week 9. Serum samples were collected at week 12 and assayed for anti-ovalbumin total IgG isotypes as described in Example 4 utilizing ovalbumin antigen instead of HA antigen. Assay data for Example 5 are found in FIG. 5.
A stock solution of ovalbumin was prepared by dissolving Ovalbumin, 125 mg/ml, in 10 mM phosphate buffer (pH 7.4). This solution was used to provide 25 mg in a volume of 0.2 ml. Five BALB/c mice were administered a single oral dose of 25 mg ovalbumin per mouse with 600 mg/kg of E94 delivery agent.
Challenge was achieved by subcutaneous (SC) injection of 0.1 mg ovalbumin with 50% Complete Freund's Adjuvant (CFA) at week 1. Serum samples were collected at week 4 and assayed for anti-ovalbumin total IgG isotypes as described in Example 5. Assay data for Example 6 are found in FIG. 6.

[6] = test system: DTH response to ovalbumin; test: DTH footpad thickness assay in mice fed ovalbumin with delivery agent; type: in vivo, BALB/c mice; conditions: single oral dose 1.0 mg ovalbumin with or without 600 mg/kg delivery agent; SC challenge ovalbumin/CFA week 3; versus unfed
Method: A stock solution of ovalbumin was prepared by dissolving Ovalbumin, 10 mg/ml in 10 mM phosphate buffer (pH 7.4). This solution was diluted 2-fold and used to provide 1.0 mg in a volume of 0.2 ml. Five BALB/c mice were administered a single oral dose of 1.0 mg ovalbumin per mouse with 600 mg/kg of E702 delivery agent.
Challenge was achieved by subcutaneous (SC) injection of 0.1 mg ovalbumin with 50% Complete Freund's Adjuvant (CFA) at week 3. DTH assay was performed as described in Examples 1 and 8. Assay data for Example 10 are found in FIG. 9.

[7] = single oral dose SRBC + delivery agent 600 mg/Kg, versus unfed control (Comparative Example D)

| Molecule | DTH response (footpad thickness), Day 14 (DTH response to SRBC) | mean day of onset of paralysis [4] [days] | clinical disease (Mean Clinical Score) of EAE [4] | serum anti-ovalbumin IgG titer at week 4 [5] | serum anti-ovalbumin IgG titer at week 12 [5] | DTH response (footpad thickness), week 5 [6] | further results |
| --- | --- | --- | --- | --- | --- | --- | --- |
| COc1ccccc1C(=O)Nc1ccc(CCC(=O)O)cc1 [E594, 3-[4-(N-2 methoxybenzoyl)]aminophenyl propionic acid] | suppressed the DTH response on Day 14 relative to unfed control (Comparative Example L) significantly more than without delivery agent |  |  |  |  |  | anti-SRBC IgG titer, Day 14 ([1]; single oral dose 2.5×10^9 SRBC + delivery agent 600 mg/Kg, versus unfed control and SRBC alone): suppressed IgG on Day 14 relative to unfed control (Comparative Example K) significantly more than without delivery agent |
| O=C(N[C@@H](Cc1ccccc1)C(=O)O)c1ccccc1O [E94, N-salicyloyl phenylalanine] |  | 15 | suppression of clinical disease | significantly suppressed serum anti-Ova IgG titers | significantly suppressed compared to both unfed and antigen-alone fed |  | anti-SRBC IgM titer, Day 14 ([2]; single oral dose 2.5×10^9 SRBC + delivery agent 600 mg/Kg, primed day 7, versus unfed control and SRBC alone): suppressed IgM on Day 14 relative to unfed control (Comparative Example D) significantly more than without delivery agent; anti-SRBC IgM titer, Day 28 [2, 7]: still lower than that for the Comparative Example D control (90% significance); suppression of anti-influenza antibody production (HI titer) relative to control fed only influenza antigen [3]: more than 2 fold; anti-SRBC IgG titer, Day 28 [1, 7]: lower than the Comparative Example D control (90% significance) |
| COc1cccc(C(=O)Nc2ccc(CCC(=O)O)cc2)c1OC [E702, 3-[4-(N-2,3-dimethoxybenzoyl)]aminophenyl propionic acid] |  | 15 | suppression of clinical disease |  |  | significantly suppressed response in the DTH |  |
| Ovalbumin: Ovalbumin antigen fed orally alone, without delivery agent, as comparative example |  |  |  | suppression was not statistically significant | the same as in mice given the intramuscular dose alone | not suppressed |  |
| O=C(O)CCCc1ccc(NS(=O)(=O)c2ccccc2)cc1 [E198, 4-[4-(N-benzenesulfonyl)]aminophenyl butyric acid] | suppressed the DTH response on Day 14 relative to unfed control (Comparative Example L) significantly more than without delivery agent |  |  |  |  |  |  |
| B1 |  | 13 |  |  |  |  |  |
